In patent publication US12240855B2, “Pyrrolopyrazole derivative” (DAIICHI SANKYO COMPANY, LIMITED, priority 2019, dated 2025):

Legend:
HCT116 cells = assay: cells; details: Homo sapiens, HCT-116, 72 h, read-out: Test Example 3 HCT116 GI50
Protocol: McCoy's 5A medium containing 10% bovine serum was used as the culture medium for each cell. […] They were added to each well of 384-well plates at 40 nL/well using an Echo555 (Labcyte Inc.). […] On the day of compound addition (day 0) and 3 days after compound addition (day 3), 10 μL/well of CellTiter-Glo® 2.0 Assay (Promega, #G9242), which is a reagent for ATP measurement, was added to each well, and the amount of luminescence in each well was measured with EnVision. From the amount of luminescence on the day of compound addition (C0) and the amount of luminescence of the compound non-addition group (C3) and compound addition group (T3) after 3 days of culture, cell viability was calculated based on the following formula. Cell viability (%)=[(T3−C0)/(C3−C0)]×100

[1] = test system: PTDSS2-KO HCT116 cell-subcutaneous transplanted model; assay: Test Example 4: Antitumor activity on PTDSS2-KO HCT116 cell-subcutaneous transplanted model; assay type: in vivo, female BALB/c-nu/nu mice; details: oral
Source text: HCT116 cell-subcutaneous transplanted model PTDSS2-KO HCT116 cells were transplanted to a right subcutaneous axillary portion of female BALB/c-nu/nu mice at a proportion of 1×10^7 cells/head, and when the tumor volume reached 100 to 300 mm^3 (estimated tumor volume (major axis×minor axis×minor axis/2)), mice were divided into groups of 6 or 5 mice each such that there was no difference between groups. The female BALB/c-nu/nu mice were purchased from CHARLES RIVER LABORATORIES JAPAN, INC. The compounds of Examples 58, 57, 53, 30, 42, 32, 34, 33, and 31 were orally administered from the day of grouping in the dosing schedule shown in Table 12 (twice daily, 11 successive days (BID×11), or once daily, 13 successive days (QD×13)). The tumor volume was measured until the next day of completion of the administration (test end date). 0.5% methylcellulose (MC) was administered to the vehicle control group as the vehicle.
TGI %=(1−TVt/TVc)×100 • TGI: Tumor growth suppression rate • TVt: Group mean tumor volume of compound administration group on test end date • TVc: Group mean tumor volume of vehicle control group on test end date

[2] = 40 mg/kg, QD × 13, test end date
[3] = 10 mg/kg, QD × 13, test end date
[4] = 20 mg/kg, QD × 13, test end date

Structure (SMILES)	GI50 (HCT116 cells) [µM]	other results
O=C1c2[nH]nc(-c3cccc4[nH]c(=O)oc34)c2C(c2ccc(Oc3ccc(Cl)cc3)cc2)N1CC1CC1 (single isomer, unassigned) [Example 2, 7-{4-[4-(4-Chlorophenoxy)phenyl]-5-(cyclopropylmethyl)-6-oxo-1,4,5,6-tetrahydropyrrolo[3,4-c]pyrazol-3-yl}-1,3-benzoxazol-2(3H)-one (enantiomer)]	10	
CC(F)(F)CN1C(=O)c2[nH]nc(-c3cccc(NC(N)=O)c3)c2C1c1ccc(Cl)cc1 (stereo not shown) [Example 93, N-{3-[4-(4-Chlorophenyl)-5-(2,2-difluoropropyl)-6-oxo-1,4,5,6-tetrahydropyrrolo[3,4-c]pyrazol-3-yl]phenyl}urea]	> 25	
O=C1c2[nH]nc(-c3cccc4[nH]c(=O)oc34)c2C(c2cccc(OC3CCC(F)(F)CC3)c2)N1CC1CC1 (stereo not shown) [Example 7, 7-[5-(Cyclopropylmethyl)-4-{3-[(4,4-difluorocyclohexyl)oxy]phenyl}-6-oxo-1,4,5,6-tetrahydropyrrolo[3,4-c]pyrazol-3-yl]-1,3-benzoxazol-2(3H)-one]	15	
CC(F)(F)CN1C(=O)c2[nH]nc(-c3cccc4[nH]c(=O)oc34)c2C1c1ccc(Oc2ccc(OC(F)(F)F)c(Cl)c2)cc1 (single isomer, unassigned; (-)) [Example 31, (−)-7-[4-{4-[3-chloro-4-(trifluoromethoxy)phenoxy]phenyl}-5-(2,2-difluoropropyl)-6-oxo-1,4,5,6,-tetrahydropyrrolo[3,4-c]pyrazol-3-yl]-1,3-benzoxazol-2-(3H)-one]		TGI (%) [1, 2]: 88%
CCC(F)(F)CN1C(=O)c2[nH]nc(-c3cccc4[nH]c(=O)oc34)c2C1c1ccc(F)cc1 (stereo not shown) [Example 11, 7-[5-(2,2-Difluorobutyl)-4-(4-fluorophenyl)-6-oxo-1,4,5,6-tetrahydropyrrolo[3,4-c]pyrazol-3-yl]-1,3-benzoxazol-2(3H)-one]	> 25	
CC(F)(F)CN1C(=O)c2[nH]nc(-c3cccc4[nH]c(=O)oc34)c2C1c1ccc(Oc2cc(C(F)(F)F)cc(C(F)(F)F)c2)cc1F (single isomer, unassigned) [Example 66, 7-[4-{4-[3,5-Bis(trifluoromethyl)phenoxy]-2-fluorophenyl}-5-(2,2-difluoropropyl)-6-oxo-1,4,5,6-tetrahydropyrrolo[3,4-c]pyrazol-3-yl]-1,3-benzoxazol-2(3H)-one (enantiomer)]	> 25	
CC(F)(F)CN1C(=O)c2[nH]nc(-c3cccc4[nH]c(=O)oc34)c2C1c1ccc(Oc2ccc(Cl)cc2)cc1 (single isomer, unassigned; (-)) [Example 57, (−)-7-{4-[4-(4-Chlorophenoxy)phenyl]-5-(2,2-difluoropropyl)-6-oxo-1,4,5,6-tetrahydropyrrolo[3,4-c]pyrazol-3-yl}-1,3-benzoxazol-2(3H)-one]		TGI (%) ([1]; 50 mg/kg, BID × 11, test end date): 89%; TGI (%) ([1]; 100 mg/kg, BID × 11, test end date): 97%
Cc1cc(Oc2ccc(C3c4c(-c5cccc6[nH]c(=O)oc56)n[nH]c4C(=O)N3CC(C)(F)F)cc2)ccc1OC(F)(F)F (single isomer, unassigned; (-)) [Example 32, (−)-7-[5-(2,2-difluoropropyl)-4-{4-[3-methyl-4-(trifluoromethoxy)phenoxy]phenyl}-6-oxo-1,4,5,6-tetrahydropyrrolo[3,4-c]pyrazol-3-yl]-1,3-benzoxazol-2(3H)-one]		TGI (%) [1, 3]: 95%; TGI (%) [1, 4]: 98%; TGI (%) [1, 2]: 98%
O=C1c2[nH]nc(-c3ccc(F)c4[nH]c(=O)oc34)c2C(c2cc(Oc3ccccc3)ccc2F)N1CC(F)(F)F (stereo not shown) [Example 16, 4-Fluoro-7-[4-(2-fluoro-5-phenoxy]phenyl)-6-oxo-5-(2,2,2-trifluoroethyl)-1,4,5,6-tetrahydropyrrolo[3,4-c]pyrazol-3-yl-1,3-benzoxazol-2(3H)-one]	> 25	
CC(F)(F)CN1C(=O)c2[nH]nc(-c3cccc4[nH]c(=O)oc34)c2C1c1ccc(Oc2ccc(Cl)cc2)cn1 (stereo not shown) [Example 77, 7-{4-[5-(4-Chlorophenoxy)pyridin-2-yl]-5-(2,2-difluoropropyl)-6-oxo-1,4,5,6-tetrahydropyrrolo[3,4-c]pyrazol-3-yl]-1,3-benzoxazol-2(3H)-one]	> 25	
CC(F)(F)CN1C(=O)c2[nH]nc(-c3cccc4[nH]c(=O)oc34)c2C1c1ccc(Oc2cc(Cl)cc(OC(F)(F)F)c2)cc1 (single isomer, unassigned; (-)) [Example 34, (−)-7-[4-{4-[3-Chloro-5-(trifluoromethoxy)phenoxy]phenyl}-5-(2,2-difluoropropyl)-6-oxo-1,4,5,6-tetrahydropyrrolo[3,4-c]pyrazol-3-yl]-1,3-benzoxazol-2(3H)-one]		TGI (%) [1, 3]: 63%; TGI (%) [1, 4]: 87%; TGI (%) [1, 2]: 96%
CC(F)(F)CN1C(=O)c2[nH]nc(-c3cccc4[nH]c(=O)oc34)c2C1c1cnc(C(F)(F)F)s1 (single isomer, unassigned) [Example 24, 7-{5-(2,2-Difluoropropyl)-6-oxo-4-[2-(trifluoromethyl)-1,3-thiazol-5-yl]-1,4,5,6-tetrahydropyrrolo[3,4-c]pyrazol-3-yl}-1,3-benzoxazol-2(3H)-one (enantiomer)]	> 25	
CC(F)(F)CN1C(=O)c2[nH]nc(-c3cccc4[nH]c(=O)oc34)c2C1c1cc(Oc2ccc(F)cc2)ccn1 (stereo not shown) [Example 78, 7-{5-(2,2-Difluoropropyl)-4-[4-(4-fluorophenoxy)pyridin-2-yl]-6-oxo-1,4,5,6-tetrahydropyrrolo[3,4-c]pyrazol-3-yl}-1,3-benzoxazol-2(3H)-one]	> 25	
Cc1nc(C2c3c(-c4cccc5[nH]c(=O)oc45)n[nH]c3C(=O)N2CC(C)(F)F)ccc1F (single isomer, unassigned) [Example 23, 7-[5-(2,2-Difluoropropyl)-4-(5-fluoro-6-methylpyridin-2-yl)-6-oxo-1,4,5,6-tetrahydropyrrolo[3,4-c]pyrazol-3-yl]-1,3-benzoxazol-2(3H)-one (enantiomer)]	> 25	
O=C1c2[nH]nc(-c3cccc4[nH]c(=O)oc34)c2C(c2cccc(Oc3ccccc3)c2)N1Cc1ncco1 (stereo not shown) [Example 12, 7-{5-[(1,3-Oxazol-2-yl)methyl]-6-oxo-4-(3-phenoxyphenyl)-1,4,5,6-tetrahydropyrrolo[3,4-c]pyrazol-3-yl}-1,3-benzoxazol-2(3H)-one]	> 25	
CC(F)(F)CN1C(=O)c2[nH]nc(-c3cccc(NC=O)c3)c2C1c1ccc(Cl)cc1 (stereo not shown) [Example 92, N-{3-[4-(4-Chlorophenyl)-5-(2,2-difluoropropyl)-6-oxo-1,4,5,6-tetrahydropyrrolo[3,4-c]pyrazol-3-yl]phenyl}formamide]	11	
CC(F)(F)CN1C(=O)c2[nH]nc(-c3cccc4[nH]c(=O)oc34)c2C1c1ccc(Oc2ccc(Cl)cc2)cc1F (single isomer, unassigned; (-)) [Example 58, (−)-7-{4-[4-(4-Chlorophenoxy)-2-fluorophenyl]-5-(2,2-difluoropropyl)-6-oxo-1,4,5,6-tetrahydropyrrolo[3,4-c]pyrazol-3-yl}-1,3-benzoxazol-2(3H)-one]		TGI (%) ([1]; 200 mg/kg, BID × 11, test end date): 87%
CC(F)(F)CN1C(=O)c2[nH]nc(-c3cccc4[nH]c(=O)oc34)c2C1c1ccc(CN2CCC(F)(F)CC2)cc1 (single isomer, unassigned) [Example 83, 7-[4-{4-[(4,4-Difluoropiperidin-1-yl)methyl]phenyl}-5-(2,2-difluoropropyl)-6-oxo-1,4,5,6-tetrahydropyrrolo[3,4-c]pyrazol-3-yl]-1,3-benzoxazol-2(3H)-one (enantiomer)]	> 25	
O=C1c2[nH]nc(-c3cc(Oc4ccccc4)cc4[nH]c(=O)oc34)c2C(c2ccc(F)cc2)N1CC(F)(F)F (stereo not shown) [Example 15, 7-[4-(4-Fluorophenyl)-6-oxo-5-(2,2,2-trifluoroethyl)-1,4,5,6-tetrahydropyrrolo[3,4-c]pyrazol-3-yl]-5-phenoxy-1,3-benzoxazol-2(3H)-one]	> 25	
CC(F)(F)CN1C(=O)c2[nH]nc(-c3cccc4[nH]c(=O)oc34)c2C1c1ccnc(Oc2ccccc2)c1 (stereo not shown) [Example 72, 7-[5-(2,2-Difluoropropyl)-6-oxo-4-(2-phenoxypyridin-4-yl)-1,4,5,6-tetrahydropyrrolo[3,4-c]pyrazol-3-yl]-1,3-benzoxazol-2(3H)-one]	> 25	
CC(F)(F)CN1C(=O)c2[nH]nc(-c3cccc4[nH]c(=O)oc34)c2C1c1ccc2c(cnn2-c2ccccc2)c1 (stereo not shown) [Example 88, 7-[5-(2,2-Difluoropropyl)-6-oxo-4-(1-phenyl-1H-indazol-5-yl)-1,4,5,6-tetrahydropyrrolo[3,4-c]pyrazol-3-yl]-1,3-benzoxazol-2(3H)-one]	7.9	
CC(F)(F)CN1C(=O)c2[nH]nc(-c3cccc4[nH]c(=O)oc34)c2C1c1ccc(C(F)(F)c2ccccc2)cc1 (stereo not shown) [Example 91, 7-[4-{4-[Difluoro(phenyl)methyl]phenyl}-5-(2,2-difluoropropyl)-6-oxo-1,4,5,6-tetra hydropyrrolo[3,4-c]pyrazol-3-yl]-1,3-benzoxazol-2(3H)-one]	15	
O=C1c2[nH]nc(-c3cccc4[nH]c(=O)oc34)c2C(c2cccc(Oc3ccc(Cl)cn3)c2)N1CC1CC1 (stereo not shown) [Example 3]	13	
